1 compound from patent US20180362485A1, “N-HYDROXYFORMAMIDE COMPOUNDS AND COMPOSITIONS COMPRISING THEM FOR USE AS BMP l, TLL1 AND/OR TLL2 INHIBITORS” (GlaxoSmithKline Intellectual Property (No. 2) Limited, priority 2015, published 2018) can be followed below.

Bounds are passed on as bounds.

The assay concerns the target T1, human TLL1 (Homo sapiens, UniProt O43897, I156V/N221S/V284A).
T1 construct: a natural variant of full length native human TLL1 (NM_012464.4); made in house
T1 sequence (O43897 148-1013 I156V/N221S/V284A): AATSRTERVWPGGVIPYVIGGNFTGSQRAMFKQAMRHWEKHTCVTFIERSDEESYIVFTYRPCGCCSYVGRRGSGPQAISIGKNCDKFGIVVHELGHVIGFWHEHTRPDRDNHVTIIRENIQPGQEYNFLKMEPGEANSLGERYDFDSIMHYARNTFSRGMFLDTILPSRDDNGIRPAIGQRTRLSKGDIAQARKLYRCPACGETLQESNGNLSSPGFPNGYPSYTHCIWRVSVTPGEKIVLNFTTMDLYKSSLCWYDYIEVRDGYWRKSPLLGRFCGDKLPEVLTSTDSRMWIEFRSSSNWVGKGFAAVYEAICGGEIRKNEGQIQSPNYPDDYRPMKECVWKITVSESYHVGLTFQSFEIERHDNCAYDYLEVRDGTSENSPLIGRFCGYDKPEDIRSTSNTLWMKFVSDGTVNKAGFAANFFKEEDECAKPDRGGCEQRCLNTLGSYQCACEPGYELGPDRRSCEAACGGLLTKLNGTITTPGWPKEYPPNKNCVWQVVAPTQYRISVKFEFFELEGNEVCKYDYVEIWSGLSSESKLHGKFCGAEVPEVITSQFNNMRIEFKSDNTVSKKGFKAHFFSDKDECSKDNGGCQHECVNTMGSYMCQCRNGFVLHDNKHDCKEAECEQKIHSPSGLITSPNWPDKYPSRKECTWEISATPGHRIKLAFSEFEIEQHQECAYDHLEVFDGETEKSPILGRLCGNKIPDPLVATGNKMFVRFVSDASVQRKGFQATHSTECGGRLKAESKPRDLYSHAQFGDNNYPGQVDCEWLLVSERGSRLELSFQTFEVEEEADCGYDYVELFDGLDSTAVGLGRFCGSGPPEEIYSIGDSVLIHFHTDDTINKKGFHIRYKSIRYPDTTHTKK
Description: Enzyme inhibition assay for human TLL1. It is filed as biochemical. Conditions: 2 nM TLL1, 0.8 μM promyostatin peptide substrate; read-out: pIC50, TLL1 enzyme inhibition assay (converted). An excerpt:
Buffer components are purchased from Sigma-Aldrich (St. Louis, Mo.) or an equivalent supplier. The promyostatin peptide substrate is custom synthesized by American Peptide Company (Sunnyvale, Calif.) using the myostatin protein sequence (Uniprot accession number 014793) surrounding the cleavage site reviewed in Hopkins, D. R., et al., 2007 Matrix Biology, 26, 508-523. The procollagen peptide substrate used in the high enzyme BMP1 cleavage assay is custom synthesized by 21st Century Biochemicals (Marlboro, Mass.) using the procollagen Iα protein sequence (Uniprot accession number P02452) surrounding the cleavage site reviewed in Hopkins, D. R., et al., 2007 Matrix Biology, 26, 508-523.
The DNA sequence encoding a natural variant of full length native human TLL1 (NM_012464.4) containing three amino acid substitutions I156V, N221S, V284A is amplified from human heart and brain cDNA and subcloned into the pCDN expression vector. The plasmid is electroporated into CHOE1A cells. […]
Inhibition of human TLL1 and TLL2 recombinant enzymes is measured in 10 ul endpoint assays in 384-well format using the same promyostatin peptide substrate employed in the above Enzyme Inhibition Assay for human BMP1. […] TLL1 and TLL2 reactions are quenched with 5 μl of 0.5 M EDTA and plates are read on a ViewLux (Perkin Elmer) multilabel plate reader using a 480 nm excitation filter and 540 nm emission filter. […]

For `CCCCC[C@@H](C(=O)NCNC(=O)c1ccc(-c2ccc(C(=O)O)cc2)o1)[C@@H](CC)N(O)C=O` [WO2015/104684 Example 71, 4-(5-((((R)-2-((R)-1-(N-hydroxyformamido)propyl)heptanamido)methyl)carbamoyl)furan-2-yl)benzoic acid], the IC50 is under 398 nM.
